From the NIST ThermoML archive (doi:10.1016/j.tca.2018.07.016)
“And” between values parts separate entries of the source, which are not always exact repeats. Identical values can stand only once.

Conditions: Liquid, Transpiration method

C1CCCNCCC1 [heptamethyleneimine]
Conditions | vapor or sublimation pressure
276.1 K | 0.08722 kPa
279.6 K | 0.1144 kPa
281.3 K | 0.1316 kPa
285.2 K | 0.1719 kPa
288.3 K | 0.22 kPa
292.1 K | 0.277 kPa
292.3 K | 0.2658 kPa
295.2 K | 0.3338 kPa
299 K | 0.4239 kPa
299.2 K | 0.4202 kPa
302.1 K | 0.5212 kPa
306.1 K | 0.6926 kPa
309 K | 0.8283 kPa and 0.7923 kPa
313 K | 1.016 kPa
317 K | 1.311 kPa
319.8 K | 1.44 kPa
322 K | 1.585 kPa
324.9 K | 1.97 kPa

C1CCCNCC1 [azacycloheptane]
Conditions | vapor or sublimation pressure [kPa]
275.3 K | 0.2584
278.3 K | 0.3225
281 K | 0.3957
284.2 K | 0.4858
287.3 K | 0.604
290.2 K | 0.7427
293.2 K | 0.8989
296.2 K | 1.051
302.2 K | 1.525
305.2 K | 1.824
308.1 K | 2.177
311.2 K | 2.409
314.2 K | 3.025
317.2 K | 3.485
321.2 K | 4.037

C1CCCCNCCC1 [octamethylenimine]
Conditions | vapor or sublimation pressure [kPa]
274.6 K | 0.01266
278.3 K | 0.01754
283.3 K | 0.02575
288.3 K | 0.03757
293.2 K | 0.05489
298.1 K | 0.07468
304.1 K | 0.1162
309.1 K | 0.1671
313.3 K | 0.2073
318.1 K | 0.2813
323.4 K | 0.3868
